# From ChEMBL document CHEMBL1155631, “Cembrane diterpenes from the southern African soft coral Cladiella kashmani” (J Nat Prod, 2000)
# System: Artemia salina
# Test: Toxicity against Artemia salina
# Format: organism-based
# Conditions: in vivo
row,SMILES,LC50
1,CC(=O)O[C@H]1/C(C(C)C)=C\C=C(/C)CC/C=C(\C)CC[C@@H]2O[C@]2(C)[C@H]1C(C)=O,110 ppm
2,CC(=O)O[C@@H]1/C(C(C)C)=C\C=C(/C)CC/C=C(\C)CC[C@@H]2O[C@]2(C)[C@H]1O [FLACCIDOXIDE],180 ppm
3,C/C1=C\C=C(\C(C)C)[C@@H](O)C[C@]2(C)O[C@H]2CC/C(C)=C/CC1,50 ppm
